For two molecules, IC50 results are on record in patent EP0481802A1, “Hydroxylated inhibitors of HIV reverse transcriptase” (MERCK & CO. INC., priority 1990, dated 1992).

The experiment concerns the target T1, recombinant HIV reverse transcriptase (HIV RTR) (Human immunodeficiency virus type 1 group M subtype B, UniProt P04585).
T1 construct: recombinant HIV reverse transcriptase (HIV RTR)
Put plainly: Reverse Transcriptase Assay. The format is biochemical. The note with it: incorporation of [³H] dGMP into acid-precipitable cDNA, dGTP and poly r(C)·oligo d(G)12-18 at Km, 37°C for 45 minutes; read-out: IC₅₀. As for the experimental part: The assay measures the incorporation of tritiated deoxyguanosine monophosphate by recombinant HIV reverse transcriptase (HIV RTR) (or other RT) into acid-precipitable cDNA at the Km values of dGTP and poly r(C)·oligo d(G)₁₂₋₁₈.
Thirty uL of a reaction mixture containing equal volumes of: 500 mM Tris·HCl (pH 8.2), 300 mM MgCl₂, 1200 mM KCl, 10 mM DTT, 400 µg/mL poly r(c)·oligo d(G) [prepared by dissolving 1.5 mg (25 U) poly r(C)·oligo d(G) in 1.5 ml sterile distilled H₂O and diluting to 400 µg/ml], 0.1 µCi/µl [³H] dGTP, 160 µM dGTP, was added to 10 µl sterile distilled H₂O, 2.5 µl of potential inhibitor and 10 µL of 5 nM purified HIV RTR in tubes. The mixture was incubated at 37°C for 45 minutes.
After incubation is complete, the tubes were cooled in ice for 5 minutes. Ice-cold 13% TCA containing 10 mM NaPPi (200 µl) are added and the mixture incubated on ice for 30 minutes. The precipitated cDNA is removed by filtration using presoaked glass filters [TCA, NaPPi]. The precipitate is then washed with 1N HCl, 10 mM NaPPi.
The filter discs are then counted in a scintillation counter.
Under these conditions [dGTP] and poly r(C)·oligo d(G)₁₂₋₁₈ each are approximately equal to the appropriate Km value. […] Calculated IC₅₀ values for the lead compounds of this invention were approximately 94nM and (more than or equal to) 300 µM for L-697,914 and L-697,913, respectively. […]

The structures appear in SMILES notation.

On to `Cc1[nH]c(=O)c(NCc2nc3ccccc3o2)cc1C(C)O` [L-697,913, 3-[(benzoxazol-2-yl)methylamino]-5-(1-hydroxyethyl)-6-methylpyridin-2(1H)-one], for which the IC50 was at least 300000 nM.

On to `CCc1cc(NCc2nc3ccccc3o2)c(=O)[nH]c1CO` [L-697,914, 3-[(benzoxazol-2-yl)methylamino]-5-ethyl-6-hydroxymethylpyridin-2(1H)-one], for which the IC50 is about 94 nM.
